Publication PMC6934184, “Selective DNA-PKcs inhibition extends the therapeutic index of localized radiotherapy and chemotherapy” (The Journal of Clinical Investigation, 2019)

Target: T1, NTRK2 (TRKB) (Homo sapiens, UniProt Q16620)
T1 construct: purchased Thermo Fisher Scientific (Life Technologies) SelectScreen
Assay: SelectScreen Z'LYTE
Type: biochemical
How it was run: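 Percent values come from Thermo SelectScreen profiling of NU5455, combining activity and binding assays. CSF1R was run in Z'LYTE format at Km app ATP, and CAMK1 in Adapta format with ATP listed at 10.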

T1 sequence (Q16620 32-822): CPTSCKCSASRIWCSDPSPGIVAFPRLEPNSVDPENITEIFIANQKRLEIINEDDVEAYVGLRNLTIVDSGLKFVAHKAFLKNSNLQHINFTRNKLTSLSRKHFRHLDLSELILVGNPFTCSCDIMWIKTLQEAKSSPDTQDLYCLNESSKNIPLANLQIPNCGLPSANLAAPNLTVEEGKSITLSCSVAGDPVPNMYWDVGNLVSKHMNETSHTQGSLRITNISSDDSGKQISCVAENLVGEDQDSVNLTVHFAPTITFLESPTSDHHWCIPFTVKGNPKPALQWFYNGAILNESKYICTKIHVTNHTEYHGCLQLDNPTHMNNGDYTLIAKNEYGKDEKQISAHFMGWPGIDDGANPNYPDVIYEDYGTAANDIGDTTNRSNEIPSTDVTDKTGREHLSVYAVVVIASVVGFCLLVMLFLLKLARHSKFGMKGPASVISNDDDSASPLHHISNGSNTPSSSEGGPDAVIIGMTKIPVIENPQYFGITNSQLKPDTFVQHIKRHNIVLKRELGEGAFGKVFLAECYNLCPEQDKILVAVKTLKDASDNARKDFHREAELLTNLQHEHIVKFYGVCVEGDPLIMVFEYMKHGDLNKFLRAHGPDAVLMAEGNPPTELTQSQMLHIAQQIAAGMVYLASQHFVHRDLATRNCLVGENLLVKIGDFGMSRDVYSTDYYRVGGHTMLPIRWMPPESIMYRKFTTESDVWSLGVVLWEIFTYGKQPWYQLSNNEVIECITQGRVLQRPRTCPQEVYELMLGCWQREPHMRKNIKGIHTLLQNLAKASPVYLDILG

CN(C(=O)CN1CCOCC1)c1ccc2sc3c(-c4cccc5c(=O)cc(N6CC7CCC(C6)O7)oc45)cccc3c2c1 [NU5455]
inhibition at 1 µM: 5.1%
